Columns and labels:
[1] = target: Melanocortin receptor 4 (Homo sapiens) (UniProt P32245); assay: Inhibition of Melanocortin MC4 at 10 µM in the Eurofins-Panlabs radioligand binding assay (Eurofins_assay_251350); parameters: ligand concentration 0.02 nM; details: Compound concentration 10.0 uM
[2] = target: Dual specificity protein kinase CLK4 (Homo sapiens) (UniProt Q9HAZ1); assay: CLK4 Kinase screen; details: Compound concentration 1.0 uM
[3] = target: T1, Ephrin type-B receptor 2 (Homo sapiens) (UniProt P29323); assay: EPHB2 Kinase screen; details: Compound concentration 1.0 uM
T1 sequence (whole entry): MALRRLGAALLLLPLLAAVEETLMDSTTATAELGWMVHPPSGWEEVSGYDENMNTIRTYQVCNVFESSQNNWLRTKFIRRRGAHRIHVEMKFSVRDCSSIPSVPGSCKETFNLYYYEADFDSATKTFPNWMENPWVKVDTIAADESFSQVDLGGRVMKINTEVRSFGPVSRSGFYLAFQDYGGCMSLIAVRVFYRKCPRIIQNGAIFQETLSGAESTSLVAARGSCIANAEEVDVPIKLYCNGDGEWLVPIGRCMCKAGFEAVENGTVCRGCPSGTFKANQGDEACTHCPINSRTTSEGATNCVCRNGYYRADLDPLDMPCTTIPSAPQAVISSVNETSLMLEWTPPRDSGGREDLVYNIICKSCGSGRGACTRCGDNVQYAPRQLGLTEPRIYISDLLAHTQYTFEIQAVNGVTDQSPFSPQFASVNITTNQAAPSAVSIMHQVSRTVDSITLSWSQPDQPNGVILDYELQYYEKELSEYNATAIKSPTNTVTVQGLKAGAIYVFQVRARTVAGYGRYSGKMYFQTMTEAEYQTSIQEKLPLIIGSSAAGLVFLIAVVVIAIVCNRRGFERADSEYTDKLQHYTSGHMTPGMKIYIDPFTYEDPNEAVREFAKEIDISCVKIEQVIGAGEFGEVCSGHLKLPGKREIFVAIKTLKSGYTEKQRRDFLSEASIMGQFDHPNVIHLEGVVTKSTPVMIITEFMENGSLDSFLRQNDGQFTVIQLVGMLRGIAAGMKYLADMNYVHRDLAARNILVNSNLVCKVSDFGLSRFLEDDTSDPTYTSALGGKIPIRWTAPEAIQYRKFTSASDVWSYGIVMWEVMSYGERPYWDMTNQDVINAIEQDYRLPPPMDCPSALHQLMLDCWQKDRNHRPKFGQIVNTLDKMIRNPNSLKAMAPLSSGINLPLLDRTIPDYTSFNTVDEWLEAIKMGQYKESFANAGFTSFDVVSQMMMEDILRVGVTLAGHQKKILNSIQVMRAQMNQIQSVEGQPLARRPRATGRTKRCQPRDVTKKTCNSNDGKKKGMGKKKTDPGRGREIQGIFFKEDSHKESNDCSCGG

[4] = target: Tyrosine-protein kinase Fes/Fps (Homo sapiens) (UniProt P07332); assay: FES (FPS) Kinase screen; details: Compound concentration 1.0 uM
[5] = target: Serine/threonine-protein kinase mTOR (Homo sapiens) (UniProt P42345); assay: FRAP1 (mTOR) Kinase screen; details: Compound concentration 1.0 uM
[6] = target: Tyrosine-protein kinase Lyn (Homo sapiens) (UniProt P07948); assay: LYN B Kinase screen; details: Compound concentration 1.0 uM
[7] = target: T2, Mitogen-activated protein kinase kinase kinase kinase 2 (Homo sapiens) (UniProt Q12851); assay: MAP4K2 (GCK) Kinase screen; details: Compound concentration 1.0 uM
T2 sequence (whole entry): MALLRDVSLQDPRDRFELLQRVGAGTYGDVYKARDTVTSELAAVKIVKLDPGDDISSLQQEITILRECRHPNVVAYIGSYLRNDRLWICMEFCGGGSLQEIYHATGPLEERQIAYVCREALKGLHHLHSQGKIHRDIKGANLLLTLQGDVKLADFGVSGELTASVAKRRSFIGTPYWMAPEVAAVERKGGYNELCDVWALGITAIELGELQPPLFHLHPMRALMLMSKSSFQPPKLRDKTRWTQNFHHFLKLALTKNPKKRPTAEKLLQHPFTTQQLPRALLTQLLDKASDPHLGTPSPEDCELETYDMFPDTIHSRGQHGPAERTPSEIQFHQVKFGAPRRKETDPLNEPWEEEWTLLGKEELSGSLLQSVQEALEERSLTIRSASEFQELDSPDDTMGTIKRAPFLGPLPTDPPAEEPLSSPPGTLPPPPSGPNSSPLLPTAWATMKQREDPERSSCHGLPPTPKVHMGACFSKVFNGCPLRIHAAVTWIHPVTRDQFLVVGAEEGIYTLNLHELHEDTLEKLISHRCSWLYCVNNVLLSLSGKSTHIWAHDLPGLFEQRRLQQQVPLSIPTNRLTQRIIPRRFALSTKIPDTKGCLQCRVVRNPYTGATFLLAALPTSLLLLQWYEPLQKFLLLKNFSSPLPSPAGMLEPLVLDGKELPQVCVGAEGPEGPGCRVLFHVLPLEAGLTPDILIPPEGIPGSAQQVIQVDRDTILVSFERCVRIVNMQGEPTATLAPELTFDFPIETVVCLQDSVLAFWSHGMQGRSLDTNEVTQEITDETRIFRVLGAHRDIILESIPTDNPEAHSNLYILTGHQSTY

[8] = target: Hepatocyte growth factor receptor (Homo sapiens) (UniProt P08581); assay: MET (cMet) Kinase screen; details: Compound concentration 1.0 uM
[9] = target: T3, Serine/threonine-protein kinase Nek2 (Homo sapiens) (UniProt P51955); assay: NEK2 Kinase screen; details: Compound concentration 1.0 uM
T3 sequence (whole entry): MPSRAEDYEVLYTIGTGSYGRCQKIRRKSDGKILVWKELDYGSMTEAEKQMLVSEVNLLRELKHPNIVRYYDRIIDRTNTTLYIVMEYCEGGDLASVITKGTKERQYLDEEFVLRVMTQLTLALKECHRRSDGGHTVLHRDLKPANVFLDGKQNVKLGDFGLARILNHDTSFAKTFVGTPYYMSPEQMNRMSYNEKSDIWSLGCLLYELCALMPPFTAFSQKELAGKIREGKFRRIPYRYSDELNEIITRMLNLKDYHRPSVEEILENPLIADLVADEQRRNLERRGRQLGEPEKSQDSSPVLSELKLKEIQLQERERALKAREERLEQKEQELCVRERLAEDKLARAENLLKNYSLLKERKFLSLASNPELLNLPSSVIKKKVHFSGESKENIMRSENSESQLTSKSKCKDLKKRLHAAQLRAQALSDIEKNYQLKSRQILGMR

[10] = target: Serine/threonine-protein kinase Nek7 (Homo sapiens) (UniProt Q8TDX7); assay: NEK7 Kinase screen; details: Compound concentration 1.0 uM
[11] = target: BDNF/NT-3 growth factors receptor (Homo sapiens) (UniProt Q16620); assay: NTRK2 (TRKB) Kinase screen; details: Compound concentration 1.0 uM
[12] = target: Proto-oncogene tyrosine-protein kinase receptor Ret (Homo sapiens) (UniProt P07949); assay: RET Kinase screen; details: Compound concentration 1.0 uM
[13] = target: SRSF protein kinase 2 (Homo sapiens) (UniProt P78362); assay: SRPK2 Kinase screen; details: Compound concentration 1.0 uM
[14] = target: Wee1-like protein kinase (Homo sapiens) (UniProt P30291); assay: WEE1 Kinase screen; details: Compound concentration 1.0 uM
Rattus norvegicus = species on record: Rattus norvegicus; assay: GABAA, Ro-15-1788, Hippocampus Eurofins-Panlabs radioligand binding assay; parameters: ligand concentration 1 nM; details: Compound concentration 10.0 uM
[15] = target: Beta-2 adrenergic receptor (Homo sapiens) (UniProt P07550); details: Compound concentration 10.0 uM

Measured: inhibition

Sequence of BDNF/NT-3 growth factors receptor (Homo sapiens) (Q16620 32-822 limits assumed): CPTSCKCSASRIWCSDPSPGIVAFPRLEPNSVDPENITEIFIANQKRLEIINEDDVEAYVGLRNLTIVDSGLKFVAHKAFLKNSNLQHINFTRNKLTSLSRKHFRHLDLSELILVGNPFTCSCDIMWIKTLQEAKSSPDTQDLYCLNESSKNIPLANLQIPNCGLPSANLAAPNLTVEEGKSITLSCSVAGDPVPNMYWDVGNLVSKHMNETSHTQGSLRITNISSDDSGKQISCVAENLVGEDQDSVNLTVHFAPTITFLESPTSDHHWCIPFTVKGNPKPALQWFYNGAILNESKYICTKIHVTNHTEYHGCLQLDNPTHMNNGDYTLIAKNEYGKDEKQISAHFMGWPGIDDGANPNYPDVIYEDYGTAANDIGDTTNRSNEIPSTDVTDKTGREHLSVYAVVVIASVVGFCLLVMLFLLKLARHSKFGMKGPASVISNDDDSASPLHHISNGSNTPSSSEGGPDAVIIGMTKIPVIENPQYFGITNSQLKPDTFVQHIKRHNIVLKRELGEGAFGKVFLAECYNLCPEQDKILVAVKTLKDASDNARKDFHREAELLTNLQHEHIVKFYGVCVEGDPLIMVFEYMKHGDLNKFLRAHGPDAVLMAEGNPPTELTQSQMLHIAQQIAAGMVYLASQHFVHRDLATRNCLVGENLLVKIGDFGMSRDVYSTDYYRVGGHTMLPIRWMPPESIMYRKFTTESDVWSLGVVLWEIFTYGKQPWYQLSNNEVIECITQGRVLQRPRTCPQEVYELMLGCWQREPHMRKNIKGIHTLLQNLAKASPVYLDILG
Sequence of Wee1-like protein kinase (Homo sapiens) (P30291 whole entry, looked up): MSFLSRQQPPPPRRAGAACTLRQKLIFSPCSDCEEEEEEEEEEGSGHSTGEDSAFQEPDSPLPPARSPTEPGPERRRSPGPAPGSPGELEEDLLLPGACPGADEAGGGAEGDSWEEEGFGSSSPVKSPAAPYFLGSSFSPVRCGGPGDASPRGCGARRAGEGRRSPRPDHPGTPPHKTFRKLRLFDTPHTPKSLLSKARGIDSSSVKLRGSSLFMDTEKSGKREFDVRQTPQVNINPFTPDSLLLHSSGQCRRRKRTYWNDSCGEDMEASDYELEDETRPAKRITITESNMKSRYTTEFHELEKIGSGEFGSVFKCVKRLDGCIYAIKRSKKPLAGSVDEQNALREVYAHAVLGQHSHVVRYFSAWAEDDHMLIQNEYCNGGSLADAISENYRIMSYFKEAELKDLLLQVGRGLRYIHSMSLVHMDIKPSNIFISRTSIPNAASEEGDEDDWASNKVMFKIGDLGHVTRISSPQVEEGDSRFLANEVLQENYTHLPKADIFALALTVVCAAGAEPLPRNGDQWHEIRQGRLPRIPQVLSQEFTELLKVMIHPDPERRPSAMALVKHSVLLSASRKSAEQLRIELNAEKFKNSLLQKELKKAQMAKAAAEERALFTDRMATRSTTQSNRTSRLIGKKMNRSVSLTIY
Sequence of SRSF protein kinase 2 (Homo sapiens) (P78362 whole entry, looked up): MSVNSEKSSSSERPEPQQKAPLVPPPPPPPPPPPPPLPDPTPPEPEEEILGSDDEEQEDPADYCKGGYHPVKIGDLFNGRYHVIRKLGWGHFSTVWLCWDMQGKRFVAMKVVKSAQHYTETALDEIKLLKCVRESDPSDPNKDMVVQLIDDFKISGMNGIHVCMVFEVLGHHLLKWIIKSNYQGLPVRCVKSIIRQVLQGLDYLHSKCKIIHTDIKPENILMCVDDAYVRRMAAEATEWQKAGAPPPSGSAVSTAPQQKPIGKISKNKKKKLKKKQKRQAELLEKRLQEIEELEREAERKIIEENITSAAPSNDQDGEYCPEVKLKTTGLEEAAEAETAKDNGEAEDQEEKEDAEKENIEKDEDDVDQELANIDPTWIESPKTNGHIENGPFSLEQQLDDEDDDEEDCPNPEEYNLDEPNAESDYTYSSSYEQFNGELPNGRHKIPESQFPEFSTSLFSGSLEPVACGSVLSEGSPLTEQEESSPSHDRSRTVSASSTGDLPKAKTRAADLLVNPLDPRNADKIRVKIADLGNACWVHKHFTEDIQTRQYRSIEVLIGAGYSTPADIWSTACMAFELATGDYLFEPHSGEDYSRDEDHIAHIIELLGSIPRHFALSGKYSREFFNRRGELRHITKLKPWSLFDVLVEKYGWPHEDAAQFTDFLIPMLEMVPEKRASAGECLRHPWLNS
Sequence of Serine/threonine-protein kinase Nek7 (Homo sapiens) (Q8TDX7 whole entry, looked up): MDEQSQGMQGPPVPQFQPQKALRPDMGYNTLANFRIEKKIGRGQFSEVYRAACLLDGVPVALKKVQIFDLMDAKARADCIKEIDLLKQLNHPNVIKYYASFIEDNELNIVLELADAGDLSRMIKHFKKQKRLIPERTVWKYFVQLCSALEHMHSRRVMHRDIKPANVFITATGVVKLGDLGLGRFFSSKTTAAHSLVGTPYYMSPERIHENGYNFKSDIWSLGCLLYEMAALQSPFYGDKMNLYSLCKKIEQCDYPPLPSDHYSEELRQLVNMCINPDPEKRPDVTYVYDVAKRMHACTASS
Sequence of Hepatocyte growth factor receptor (Homo sapiens) (P08581 whole entry): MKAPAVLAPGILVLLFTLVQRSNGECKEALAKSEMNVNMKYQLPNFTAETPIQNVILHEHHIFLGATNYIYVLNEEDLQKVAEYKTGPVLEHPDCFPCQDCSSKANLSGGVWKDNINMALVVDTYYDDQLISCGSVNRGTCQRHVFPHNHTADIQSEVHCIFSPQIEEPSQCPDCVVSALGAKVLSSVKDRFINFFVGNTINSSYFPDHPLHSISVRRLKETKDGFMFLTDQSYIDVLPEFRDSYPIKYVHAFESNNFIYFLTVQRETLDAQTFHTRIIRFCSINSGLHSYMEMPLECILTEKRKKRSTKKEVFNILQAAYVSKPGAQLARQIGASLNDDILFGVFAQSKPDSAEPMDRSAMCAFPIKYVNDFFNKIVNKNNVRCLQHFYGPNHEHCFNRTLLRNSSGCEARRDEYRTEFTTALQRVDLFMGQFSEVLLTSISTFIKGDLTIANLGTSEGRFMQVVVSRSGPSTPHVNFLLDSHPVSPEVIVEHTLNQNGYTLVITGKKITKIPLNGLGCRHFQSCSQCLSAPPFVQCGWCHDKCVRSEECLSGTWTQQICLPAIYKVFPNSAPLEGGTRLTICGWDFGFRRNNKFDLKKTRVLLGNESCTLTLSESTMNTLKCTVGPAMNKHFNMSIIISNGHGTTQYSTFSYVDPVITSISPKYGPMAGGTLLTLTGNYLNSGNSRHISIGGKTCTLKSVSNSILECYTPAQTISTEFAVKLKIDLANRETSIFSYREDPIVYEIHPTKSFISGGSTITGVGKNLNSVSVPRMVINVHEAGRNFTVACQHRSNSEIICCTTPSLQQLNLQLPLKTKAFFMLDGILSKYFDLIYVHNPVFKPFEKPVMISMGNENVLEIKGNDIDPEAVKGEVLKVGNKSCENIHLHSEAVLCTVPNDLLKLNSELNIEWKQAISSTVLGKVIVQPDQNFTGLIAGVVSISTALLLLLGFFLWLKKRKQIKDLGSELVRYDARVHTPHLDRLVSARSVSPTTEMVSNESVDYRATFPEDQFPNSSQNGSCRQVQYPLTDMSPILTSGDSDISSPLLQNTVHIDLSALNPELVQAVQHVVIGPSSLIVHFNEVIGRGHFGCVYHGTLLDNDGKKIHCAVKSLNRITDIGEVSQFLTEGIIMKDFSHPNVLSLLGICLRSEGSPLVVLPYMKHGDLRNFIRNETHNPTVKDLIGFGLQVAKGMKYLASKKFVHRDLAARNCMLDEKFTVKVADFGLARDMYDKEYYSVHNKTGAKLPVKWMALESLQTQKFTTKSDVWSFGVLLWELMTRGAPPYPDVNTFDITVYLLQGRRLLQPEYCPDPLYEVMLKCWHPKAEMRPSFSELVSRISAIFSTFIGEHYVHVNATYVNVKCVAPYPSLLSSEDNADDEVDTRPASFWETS
Sequence of Beta-2 adrenergic receptor (Homo sapiens) (P07550 whole entry, looked up): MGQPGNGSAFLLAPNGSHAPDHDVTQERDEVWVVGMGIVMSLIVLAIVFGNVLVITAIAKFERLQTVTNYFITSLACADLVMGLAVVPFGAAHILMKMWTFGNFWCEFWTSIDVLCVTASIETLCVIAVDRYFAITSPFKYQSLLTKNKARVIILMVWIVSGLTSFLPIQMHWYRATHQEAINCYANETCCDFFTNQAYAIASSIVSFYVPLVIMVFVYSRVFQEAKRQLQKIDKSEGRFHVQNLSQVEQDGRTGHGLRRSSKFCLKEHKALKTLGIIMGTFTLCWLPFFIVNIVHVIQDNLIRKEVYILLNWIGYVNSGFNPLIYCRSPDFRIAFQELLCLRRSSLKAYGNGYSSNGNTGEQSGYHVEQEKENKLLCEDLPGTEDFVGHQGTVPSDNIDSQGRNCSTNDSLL
Sequence of Melanocortin receptor 4 (Homo sapiens) (P32245 whole entry): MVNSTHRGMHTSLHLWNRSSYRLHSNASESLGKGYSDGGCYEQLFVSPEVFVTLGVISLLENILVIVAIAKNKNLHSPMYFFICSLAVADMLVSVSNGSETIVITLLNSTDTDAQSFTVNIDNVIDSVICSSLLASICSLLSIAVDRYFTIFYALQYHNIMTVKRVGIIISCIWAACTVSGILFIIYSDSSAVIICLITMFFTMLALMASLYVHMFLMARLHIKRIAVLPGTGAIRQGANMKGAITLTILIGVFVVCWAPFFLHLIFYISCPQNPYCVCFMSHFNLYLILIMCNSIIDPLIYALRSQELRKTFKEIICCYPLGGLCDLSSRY
Sequence of Dual specificity protein kinase CLK4 (Homo sapiens) (Q9HAZ1 whole entry, looked up): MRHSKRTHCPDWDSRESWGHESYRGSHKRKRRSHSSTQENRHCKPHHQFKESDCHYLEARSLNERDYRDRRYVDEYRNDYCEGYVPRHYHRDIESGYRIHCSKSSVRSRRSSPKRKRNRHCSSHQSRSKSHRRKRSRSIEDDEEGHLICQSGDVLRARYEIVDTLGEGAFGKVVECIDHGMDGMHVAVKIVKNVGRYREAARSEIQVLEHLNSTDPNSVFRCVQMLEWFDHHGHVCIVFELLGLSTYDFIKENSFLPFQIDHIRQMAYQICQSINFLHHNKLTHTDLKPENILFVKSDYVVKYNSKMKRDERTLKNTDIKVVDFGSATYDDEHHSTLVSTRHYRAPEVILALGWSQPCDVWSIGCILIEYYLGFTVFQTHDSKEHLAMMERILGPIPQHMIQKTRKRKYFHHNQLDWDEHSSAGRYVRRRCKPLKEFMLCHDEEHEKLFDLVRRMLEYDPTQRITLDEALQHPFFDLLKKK

C[C@@H]1CN(c2cc(-c3n[nH]c4ccc(OC5(C)CC5)cc34)ncn2)C[C@H](C)O1 [MLi-2]
inactive: [1] -6% | [2] 80.1% | [3] -1.14% | [4] 6.03% | [5] 7.14% | [6] 3.94% | [7] 30.9% | [8] 5.51% | [9] -2.6% | [10] 3.68% | [11] 7.02% | [12] 5.76% | [13] 0.838% | [14] 3% | Rattus norvegicus 1% | [15] 16%
